The values below come from patent publication US20030013658A1, “Small peptides and methods for treatment of asthma and inflammation” (Hisatek, LLC, priority 1997, published 2003).

The subject of the test is OVA-sensitized/challenged mice. As to the kind of experiment: OVA-induced bronchial asthma mouse model (Standard/Resolution protocols, 1-3 month), airway eosinophils and mucus plugs. It counts as in vivo. The text has this:
The OVA-induced Bronchial Asthma Mouse Model for Inhibition of Mast Cell Degranulation
Reagents: Crystalline OVA was obtained from Pierce Chem. Co. (Rockford, Ill.) aluminum potassium sulfate (alum) from Sigma Chem. Co. (St. Louis, Mo.), pyrogen-free distilled water from Baxter, Healthcare Corporation (Deerfield, Ill.), 0.9% sodium chloride (normal saline) from Lymphomed (Deerfield, Ill.) and Trappsol™ HPB-L100 (aqueous hydroxypropyl beta cyclodextrin; 45 wt/vol % aqueous solution) from Cyclodextrin Technologies Development, Inc. (Gainesville, Fla.). The OVA (500 μg/ml in normal saline) was mixed with equal volumes of 10% (wt/vol) alum in distilled water. The mixture (pH 6.5 using 10 N NaOH) after incubation for 60 minutes at room temperature underwent centrifugation at 750 g for 5 minutes; the pellet was resuspended to the original volume in distilled water and used within one hour.
The selective 5-lipoxtgenase inhibitor, Zileuton (N-[1-benzo[b]thien-2-ylethyl]-N-hydroxyurea; J. Pharmacol Exp Ther. 1991; 256: 929-937), was kindly provided by Drs. Bell and George W. Carter (Abbott Laboratories, Abbott Part, Ill.). Zileuton was dissolved in Trappsol.™. Histatek, Inc. (Seattle, Wash.) provided the mast cell degranulation inhibitor, f-Met-Leu-Phe-Phe (“HK-X”).
Female BALB/c […] (6-8 wk of age at purchase; D and K, Seattle Wash.) were housed under conventional conditions for the studies.
Allergen Immunization/Challenge Protocols: Mice received an i.p. injection of 0.2 ml (100 μg) of OVA with alum on the different protocols of Standard (FIG. 5A) and Resolution (FIG. 5B) (J. Exp Med. 1996; 184: 1483-1494). According to the different protocols, mice were anesthetized with 0.2 ml i.p. of ketamine (0.44 mg/ml)/xylazine (6.3 mg/ml) in normal saline before receiving an intranasal (i.n.) does of 100 μg OVA in 0.05 ml normal saline and an i.n. dose of 50 μg OVA in 0.05 ml normal saline separately on different days. Two control groups were used. Accordingly, the first group received normal saline with alum i.p. and normal saline without alum i.n.; the second group received OVA with alum i.p., OVA without alum i.n., and normal saline, alone.
The trachea and left lung (the right lung is used for bronchoalveolar lavage (“BAL”)) were obtained and fixed in 10% neutral formaldehyde solution at room temperature for 6˜15 h. After being embedded in paraffin, the tissues were cut into 5-um sections and processed with the different staining or immunolabling further. Discombe's eosinophil staining was used for counting the cell numbers with the counterstain of methylene blue. The eosinophil number per unit airway area (2,200 μm^2) was determined by morphometry (J. Pathol. 1992; 166: 395-404; Am Rev Respir Dis. 1993; 147:448-456). Fibrosis was identified with the Masson's trichrome staining. Airway mucus was identified by the following staining method: methylene blue, hematoxylin and eosin, mucicarmine, alcian blue, and alcian blue/periodic acid-Schiff (PAS) reaction (Troyer, H., “Carbohydrates” in Principles and Techniques of Histochemistry, Little, Brown and Company, Boston, Mass., 1980: 89-121; Sheehan, D. C., et al., “Carbohydrates” in Theory and Practice of Histotechnology, Battle Press, Columbus, Ohio, 1980: 159-179) Mucin was stained with mucicarmine solution; metanil yellow counterstain was employed. Acidic mucin and sulfated mucosubstances were stained with alcian blue, pH 2.5; nuclear fast red counterstain was used. Neutral and acidic mucosubstances were identified by alcian blue, pH 2.5, and PAS reaction. The degree of mucus plugging of the airways (0.5-0.8 mm in diameter) was also assessed by morphometry. The percent occlusion of airway diameter by mucus was classified on a semiquantitative scale from 0 to 4+ as described in Figure Legends. The histologic and morphometric analyses were performed by individuals blinded to the protocol design. […]

“Also recorded” adds a separate entry of the source. Where no end group is shown, it is not given here. The star is where a group is joined. For = O=C*

With “f-Met-Leu-Phe-Phe (For-MLFF) [Example 9]”, for the setting “1 month”, the “AIRWAY INFLUX OF EOSINOPHILS (%)” value was 14.20%. Moreover, the “% of plug of airway” value (28 days) is 19%. For the same substance, the “PERCENTAGE OF EOSINOPHILS IN AIRWAY TISSUE” value (28 days of treatment) is 14.2%. The “MUCUS PLUG SCORE IN AIRWAYS” value (28 days, semiquantitative scale 0 to 4+) was determined as 1.4. Besides, for the setting “HK-X given before i.n. OVA, morphometry, FIG. 6, listed as HK-X”, the “mucus accumulation / mucus release in airway” value was “inhibits mucus accumulation in the airway; also recorded: airway mucus release in the airway (AW) lumen is markedly reduced”. For the same substance, where the note is “compared to OVA-challenge alone, FIG. 6C”, the “infiltration of the interstitial tissue by eosinophils” value is listed as “infiltration of the interstitial tissue by eosinophils is also reduced”. In addition, where the note is “doses of 5 μg/kg and 10 μg/kg, FIG. 7”, the “formation of mucus plugs / mucus production in small airways” value is “Both doses significantly reduce the mucus production in small airways”. Moreover, the “reduction of airway eosinophils compared with Zileuton” value by setting is: (one month) “reduced eosinophils comparably at one month”; (two and three months) “much more beneficially at two and three months”.
